Structures can show the parent of a compound that is named as a salt.
| melting point | SMILES |
| --- | --- |
| 172 to 188 °C | CC(C)Nc1ncc2c(n1)N(CC(=O)O)C(=O)N(c1ccccc1Cl)C2 [Example 1e, 3-(2-chloro-phenyl)-1-carboxymethyl-7-isopropylamino-3,4-dihydropyrimido[4,5-d]pyrimidin-2(1H)-one] |
| 188.8 to 191.4 °C | CCOC(=O)CN1C(=O)N(c2ccccc2Cl)Cc2cnc(NC(C)C)nc21 [Example 1d, 3-(2-chloro-phenyl)-1-ethoxycarbonylmethyl-7-isopropylamino-3,4-dihydropyrimido[4,5-d]pyrimidin-2(1H)-one] |
| 126 to 131.6 °C | COCCN1C(=O)N(c2ccccc2Cl)Cc2cnc(NC(C)C)nc21 (as salt: hydrochloride) [Example 2b, 3-(2-chloro-phenyl)-1-(2-methoxy-ethyl)-7-isopropylamino-3,4-dihydropyrimido[4,5-d]pyrimidin-2(1H)-one] |
